In US7410963B2, “Benzo-1,4-diazepin-2-one derivatives as phosphodiesterase PDE2 inhibitors, preparation and therapeutic use thereof” (VIA Pharmaceuticals, Inc., priority 2003, dated 2008):
Where two headings read alike, the source gives them in different places.

Assays:
[1] = tested on: PDE3; experiment: Radioenzymatic phosphodiesterase assay: PDE3 inhibition (selectivity); conditions: Table 2; 10 μM test compound; PDE3 of vascular smooth muscle
Procedure: (§1) 3 g of tunica media from bovine aorta was cut in small piece and homogenized in a glass potter with 7 volumes/weight of buffer A containing protease inhibitors cocktails (20 mM Tris-HCl, 0.25 M saccharose, 2 mM magnesium acetate, 1 mM dithiothreitol, 5 mM EGTA, 2000 U/ml aprotinine, 10 mg/l leupeptine, 10 mg/l of soybean chemotrypsin inhibitor). The homogenate was centrifuged at 875000 g for 1 h and the surpernant was then transferred in DEAE-Sephacel (15×1.6 cm). The column was equilibrated beforehand with a buffer B (buffer A without saccharose, d'EGTA and protease inhibitors). […] Fractions were aliquoted and stored at −80° C. until further use.
(§2) The monophosphated adenosine or guanosine released by the hydrolysis of tritiated cyclic nucleotides was transformed into tritiated adenosine or guanosine by excess of nucleotidase. The obtained nucleoside was separated from nucleotides by anion exchange chromatography. Nucleoside radioactivity was determined by liquid scintillation.
(§3) The phosphodiesterase inhibitory activity of compounds was evaluated on other isoforms of phosphodiesterases such as PDE3, and PDE4 of vascular smooth muscle.

[2] = tested on: PDE4; experiment: Radioenzymatic phosphodiesterase assay: PDE4 inhibition (selectivity); conditions: Table 2, PDE4 of vascular smooth muscle; for PDE4 percentage of inhibition at 10 μM: 10 μM test compound
Procedure: as §1, §2, §3

[3] = biological target: T1, PDE2 (Bos taurus, UniProt P14099); experiment: Radioenzymatic phosphodiesterase assay: PDE2 inhibition; type: biochemical, bovine; conditions: read-out: PDE2 percentage of inhibition at 10 μM
T1 sequence (P14099 1-921): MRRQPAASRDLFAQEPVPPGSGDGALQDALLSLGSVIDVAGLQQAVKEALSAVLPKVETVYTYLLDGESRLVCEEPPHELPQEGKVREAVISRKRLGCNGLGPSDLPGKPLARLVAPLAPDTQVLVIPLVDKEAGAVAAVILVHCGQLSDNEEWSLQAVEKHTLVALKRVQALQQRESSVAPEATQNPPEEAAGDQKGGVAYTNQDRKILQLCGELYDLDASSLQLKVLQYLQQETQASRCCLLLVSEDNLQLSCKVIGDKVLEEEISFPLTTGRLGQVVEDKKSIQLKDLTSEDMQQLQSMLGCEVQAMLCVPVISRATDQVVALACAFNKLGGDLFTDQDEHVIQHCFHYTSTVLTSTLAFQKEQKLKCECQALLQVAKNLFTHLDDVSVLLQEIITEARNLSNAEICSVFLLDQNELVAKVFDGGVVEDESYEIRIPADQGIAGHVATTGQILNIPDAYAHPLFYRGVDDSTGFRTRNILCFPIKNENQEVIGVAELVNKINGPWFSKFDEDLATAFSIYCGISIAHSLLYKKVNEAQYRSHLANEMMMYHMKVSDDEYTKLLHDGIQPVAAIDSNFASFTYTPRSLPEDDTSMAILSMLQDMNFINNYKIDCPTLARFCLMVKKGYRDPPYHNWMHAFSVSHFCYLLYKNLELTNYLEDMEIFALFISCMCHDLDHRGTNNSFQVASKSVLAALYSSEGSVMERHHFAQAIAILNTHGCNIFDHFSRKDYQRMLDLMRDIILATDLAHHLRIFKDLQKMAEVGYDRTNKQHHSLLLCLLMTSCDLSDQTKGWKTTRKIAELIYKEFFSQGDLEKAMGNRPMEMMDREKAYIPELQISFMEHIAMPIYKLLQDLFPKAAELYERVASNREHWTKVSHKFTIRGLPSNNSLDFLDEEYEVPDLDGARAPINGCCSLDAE
Procedure: Nucleoside radioactivity was determined by liquid scintillation.

| Structure (SMILES) | PDE3 percentage of inhibition at 10 μM [1] | PDE4 percentage of inhibition at 10 μM [2] | inhibition at 10 µM ([3]; Table 1, 10 μM test compound) | inhibition at 10 µM [3] | IC50 ([2]; read-out: PDE4 IC50) |
| --- | --- | --- | --- | --- | --- |
| COc1cc2c(cc1-c1ccccc1Cl)C(c1cccc(C(N)=O)c1)=NCC(=O)N2C [Example 23, 3-[7-(2-Chloro-phenyl)-8-methoxy-1-methyl-2-oxo-2,3-dihydro-1H-benzo[e][1,4]diazepin-5-yl]-benzamide] | 25% | 20% | 95% |  |  |
| COc1ccc(OC)c(-c2ccc3c(c2)C(c2cccc(C(N)=O)c2)=NCC(=O)N3C)c1 [Example 31, 3-[7-(2,5-Dimethoxy-phenyl)-1-methyl-2-oxo-2,3-dihydro-1H-benzo[e][1,4]diazepin-5-yl]-benzamide] | 0% | 25% | 99% |  |  |
| COc1cccc(OC)c1-c1ccc2c(c1)C(c1cccc(C(N)=O)c1)=NCC(=O)N2C [Example 32, 3-[7-(2,6-Dimethoxy-phenyl)-1-methyl-2-oxo-2,3-dihydro-1H-benzo[e][1,4]diazepin-5-yl]-benzamide] | 0% | 27% | 100% |  |  |
| COc1ccc(C2=NCC(=O)N(C)c3ccc(-c4c(OC)cccc4OC)cc32)cc1 [Example 75, 7-(2,6-Dimethoxy-phenyl)-5-(4-methoxy-phenyl)-1-methyl-1,3-dihydro-benzo[e][1,4]diazepin-2-one] | 4% | 78% | 99% |  |  |
| COc1cc2c(cc1-c1c(OC)cccc1OC)C(c1cccc(C(N)=O)c1)=NCC(=O)N2C [Example 92, 3-[7-(2,6-Dimethoxy-phenyl)-8-methoxy-1-methyl-2-oxo-2,3-dihydro-1H-benzo[e][1,4]diazepin-5-yl]-benzamide] | 52% | 23% | 97% |  |  |
| COc1cc2c(cc1-c1ccccc1Oc1ccccc1)C(c1cccc(C(N)=O)c1)=NCC(=O)N2C [Example 93, 3-[8-Methoxy-1-methyl-2-oxo-7-(2-phenoxy-phenyl)-2,3-dihydro-1H-benzo[e][1,4]diazepin-5-yl]-benzamide] | 72% | 56% | 98% |  |  |
| COc1cccc(OC)c1-c1ccc2c(c1)C(c1ccc(F)cc1)=NCC(=O)N2C [Example 100, 7-(2,6-Dimethoxy-phenyl)-5-(4-fluoro-phenyl)-1-methyl-1,3-dihydro-benzo[e][1,4]diazepin-2-one] | 0% | 77% |  | 96% |  |
| COc1ccc(C2=NCC(=O)N(C)c3cc(OC)c(-c4c(OC)cccc4OC)cc32)cc1 [Example 109, 7-(2,6-Dimethoxy-phenyl)-8-methoxy-5-(4-methoxy-phenyl)-1-methyl-1,3-dihydro-benzo[e][1,4]diazepin-2-one] | 37% | 90% | 99% |  | 1000 nM |
| COc1cccc(OC)c1-c1ccc2c(c1)C(c1cccc(C)c1)=NCC(=O)N2C [Example 115, 7-(2,6-Dimethoxy-phenyl)-1-methyl-5-m-tolyl-1,3-dihydro-benzo[e][1,4]diazepin-2-one] | 3% | 42% |  | 96% |  |
